# Literature values as cited in publication PMC3103655 (Journal of natural products, 2011).
# Key:
# [1] = test system: cancer cells
# [2] = test system: MOLT-4 leukemia cells; details: read-out: IC50, MOLT-4 leukemia cells
# [3] = test system: MCF7 breast cancer cells; details: read-out: IC50, MCF7 breast cancer cells
# [4] = test system: KB cells; details: 10 μg/mL
# [5] = test system: LoVo cells; details: 10 μg/mL
substance,measurement,setting,value
dolastatin 10,IC50 values against cancer cells,[1],pico- to nanomolar
hantupeptin A,IC50,[2],32 nM
same,IC50,[3],4000 nM
symplostatin 1,IC50 values against cancer cells,[1],pico- to nanomolar
trungapeptin A,"cytotoxicity, KB cells",[4],did not display cytotoxicity
same,"cytotoxicity, LoVo cells",[5],did not display cytotoxicity
